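All cell lines were grown in 96-well plates and treated with compound for 48 hours. GI50 = concentration required for 50% inhibition of growth. TGI denotes the concentration required for complete inhibition of growth.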
Assays:
Experiment in all cases: inhibition of tumour cell growth, NCI panel, 48 h
[1] = system: HCT-116 colon
[2] = system: EKVX NSCLC
[3] = system: MCF7 breast
[4] = system: PC-3 prostate
[5] = system: U251 CNS
[6] = system: SF-295 CNS
[7] = system: T-47D breast
[8] = system: SF-268 CNS
[9] = system: KM12 colon
[10] = system: SNB-75 CNS
[11] = system: HS 578T breast
[12] = system: SK-OV-3 ovarian
[13] = system: HL-60(TB) leukemia
[14] = system: SNB-19 CNS
[15] = system: NCI-H226 lung
[16] = system: UACC-257 melanoma
[17] = system: UO-31 renal
[18] = system: OVCAR-8 ovarian
[19] = system: A498 renal
[20] = system: MALME-3M melanoma
[21] = system: TK-10 renal
[22] = system: 786-0 renal
[23] = system: SK-MEL-5 melanoma
[24] = system: RPMI-8226 leukemia
[25] = system: SW-620 colon
[26] = system: NCI-H460 lung
[27] = system: COLO 205 colon
[28] = system: BT-549 breast
[29] = system: SR leukemia
[30] = system: SK-MEL-28 melanoma
[31] = system: MDA-MB-231 breast
[32] = system: HOP-62 NSCLC
[33] = system: NCI/ADR-RES ovarian
[34] = system: HCC-2998 colon
[35] = system: RXF 393 renal
[36] = system: A549 NSCLC
[37] = system: SN12C renal
[38] = system: NCI-H522 lung
[39] = system: CAKI-1 renal
[40] = system: HOP-92 NSCLC
[41] = system: MOLT-4 leukemia
[42] = system: K-562 leukemia
[43] = system: SK-MEL-2 melanoma
[44] = system: CCRF-CEM leukemia
[45] = system: DU-145 prostate
[46] = system: ACHN renal
[47] = system: NCI-H23 lung
[48] = system: HT29 colon
[49] = system: LOX IMVI melanoma
[50] = system: HCT-15 colon
[51] = system: OVCAR-5 ovarian
[52] = system: OVCAR-3 ovarian
[53] = system: MDA-MB-435
[54] = system: UACC-62 melanoma
[55] = system: OVCAR-4 ovarian
[56] = system: M14 melanoma
[57] = system: SF-539 CNS
[58] = system: IGROV1 ovarian

Compound: C=C1CC[C@@H]2[C@](C)(COC(C)=O)[C@H](OC(C)=O)CC[C@@]2(C)[C@@H]1CC(Sc1ccccc1)C1=CCOC1=O (stereo partly specified)
- GI50 [1]: 854 nM
- TGI [1]: 2180 nM
- GI50 [2]: 2430 nM
- TGI [2]: 10400 nM
- GI50 [3]: 538 nM
- TGI [3]: 2350 nM
- GI50 [4]: 1840 nM
- TGI [4]: 10100 nM
- GI50 [5]: 1560 nM
- TGI [5]: 2960 nM
- GI50 [6]: 4120 nM
- TGI [6]: 27300 nM
- GI50 [7]: 2010 nM
- TGI [7]: 8320 nM
- GI50 [8]: 1710 nM
- TGI [8]: 3550 nM
- GI50 [9]: 1400 nM
- TGI [9]: 2960 nM
- GI50 [10]: 1300 nM
- TGI [10]: 2900 nM
- GI50 [11]: 4890 nM
- TGI [11]: 63300 nM
- GI50 [12]: 4440 nM
- TGI [12]: 16800 nM
- GI50 [13]: 430 nM
- TGI [13]: 2270 nM
- GI50 [14]: 1780 nM
- TGI [14]: 3770 nM
- GI50 [15]: 2300 nM
- TGI [15]: 5980 nM
- GI50 [16]: 1910 nM
- TGI [16]: 3710 nM
- GI50 [17]: 1200 nM
- TGI [17]: 2530 nM
- GI50 [18]: 1460 nM
- TGI [18]: 4700 nM
- GI50 [19]: 2300 nM
- TGI [19]: 14000 nM
- GI50 [20]: 1740 nM
- TGI [20]: 3630 nM
- GI50 [21]: 2830 nM
- TGI [21]: 5540 nM
- GI50 [22]: 1900 nM
- TGI [22]: 3640 nM
- GI50 [23]: 1420 nM
- TGI [23]: 2820 nM
- GI50 [24]: 343 nM
- TGI [24]: 2730 nM
- GI50 [25]: 716 nM
- TGI [25]: 3640 nM
- GI50 [26]: 2240 nM
- TGI [26]: 6030 nM
- GI50 [27]: 1490 nM
- TGI [27]: 3980 nM
- GI50 [28]: 1590 nM
- TGI [28]: 3990 nM
- GI50 [29]: 553 nM
- TGI [29]: 3660 nM
- GI50 [30]: 1620 nM
- TGI [30]: 3290 nM
- GI50 [31]: 2470 nM
- TGI [31]: 6300 nM
- GI50 [32]: 2890 nM
- TGI [32]: 5520 nM
- GI50 [33]: 2100 nM
- TGI [33]: 11000 nM
- GI50 [34]: 2100 nM
- TGI [34]: 4070 nM
- GI50 [35]: 1620 nM
- TGI [35]: 3120 nM
- GI50 [36]: 2730 nM
- TGI [36]: 7770 nM
- GI50 [37]: 2100 nM
- TGI [37]: 7070 nM
- GI50 [38]: 1350 nM
- TGI [38]: 2980 nM
- GI50 [39]: 2770 nM
- TGI [39]: 11500 nM
- GI50 [40]: 2710 nM
- TGI [40]: 8710 nM
- GI50 [41]: 1480 nM
- TGI [41]: 6150 nM
- GI50 [42]: 699 nM
- TGI [42]: 3690 nM
- GI50 [43]: 2250 nM
- TGI [43]: 4590 nM
- GI50 [44]: 266 nM
- TGI [44]: 1190 nM
- GI50 [45]: 1410 nM
- TGI [45]: 2740 nM
- GI50 [46]: 1340 nM
- TGI [46]: 2840 nM
- GI50 [47]: 1780 nM
- TGI [47]: 3670 nM
- GI50 [48]: 1770 nM
- TGI [48]: 3770 nM
- GI50 [49]: 297 nM
- TGI [49]: 1190 nM
- GI50 [50]: 877 nM
- TGI [50]: 2590 nM
- GI50 [51]: 2460 nM
- TGI [51]: 4670 nM
- GI50 [52]: 1140 nM
- TGI [52]: 2370 nM
- GI50 [53]: 1410 nM
- TGI [53]: 3580 nM
- GI50 [54]: 1300 nM
- TGI [54]: 3240 nM
- GI50 [55]: 1360 nM
- TGI [55]: 3110 nM
- GI50 [56]: 1470 nM
- TGI [56]: 3690 nM

Compound: O=C(Nc1nc2ccc(C(F)(F)F)cc2s1)c1cc(Cl)ccc1O
- GI50 [1]: 414 nM
- TGI [1]: 11000 nM
- GI50 [2]: 370 nM
- TGI [2]: 39000 nM
- GI50 [3]: 2180 nM
- TGI [3]: > 100000 nM
- GI50 [4]: 318 nM
- TGI [4]: 11900 nM
- GI50 [5]: 1440 nM
- TGI [5]: 26900 nM
- GI50 [6]: 831 nM
- TGI [6]: 3160 nM
- GI50 [7]: 303 nM
- TGI [7]: 2960 nM
- GI50 [8]: 497 nM
- TGI [8]: > 100000 nM
- GI50 [9]: 611 nM
- TGI [9]: 22000 nM
- GI50 [10]: 1590 nM
- TGI [10]: 7240 nM
- GI50 [11]: 1230 nM
- TGI [11]: > 100000 nM
- GI50 [12]: 497 nM
- TGI [12]: 4770 nM
- GI50 [13]: 1040 nM
- TGI [13]: 3700 nM
- GI50 [14]: 629 nM
- TGI [14]: > 100000 nM
- GI50 [15]: 1230 nM
- TGI [15]: 11400 nM
- GI50 [16]: 646 nM
- TGI [16]: 5530 nM
- GI50 [17]: 1190 nM
- TGI [17]: 8790 nM
- GI50 [18]: 1120 nM
- TGI [18]: > 100000 nM
- GI50 [19]: 309 nM
- TGI [19]: 2260 nM
- GI50 [20]: 626 nM
- TGI [20]: 4480 nM
- GI50 [21]: 760 nM
- TGI [21]: 34000 nM
- GI50 [22]: 2140 nM
- TGI [22]: 30600 nM
- GI50 [23]: 234 nM
- TGI [23]: 684 nM
- GI50 [24]: 276 nM
- TGI [24]: 2000 nM
- GI50 [25]: 878 nM
- TGI [25]: 36300 nM
- GI50 [26]: 414 nM
- TGI [26]: > 100000 nM
- GI50 [27]: 1380 nM
- TGI [27]: 4000 nM
- GI50 [28]: 890 nM
- TGI [28]: 7770 nM
- GI50 [29]: 1240 nM
- TGI [29]: 20100 nM
- GI50 [30]: 425 nM
- TGI [30]: 18000 nM
- GI50 [31]: 704 nM
- TGI [31]: 3750 nM
- GI50 [32]: 2030 nM
- TGI [32]: 7090 nM
- GI50 [33]: 841 nM
- TGI [33]: > 100000 nM
- GI50 [34]: 781 nM
- TGI [34]: 73600 nM
- GI50 [35]: 1760 nM
- TGI [35]: 11100 nM
- GI50 [36]: 1510 nM
- TGI [36]: > 100000 nM
- GI50 [37]: 353 nM
- TGI [37]: > 100000 nM
- GI50 [38]: 278 nM
- TGI [38]: 2080 nM
- GI50 [40]: 116 nM
- TGI [40]: 489 nM
- GI50 [41]: 684 nM
- TGI [41]: 13400 nM
- GI50 [42]: 351 nM
- TGI [42]: > 100000 nM
- GI50 [43]: 798 nM
- TGI [43]: 6090 nM
- GI50 [44]: 378 nM
- TGI [44]: 96500 nM
- GI50 [45]: 1590 nM
- TGI [45]: > 100000 nM
- GI50 [46]: 894 nM
- TGI [46]: > 100000 nM
- GI50 [47]: 367 nM
- TGI [47]: 9530 nM
- GI50 [48]: 2100 nM
- TGI [48]: 74700 nM
- GI50 [49]: 1330 nM
- TGI [49]: 15800 nM
- GI50 [50]: 346 nM
- TGI [50]: 12900 nM
- GI50 [51]: 3670 nM
- TGI [51]: > 100000 nM
- GI50 [57]: 1490 nM
- TGI [57]: > 100000 nM
- GI50 [52]: 422 nM
- TGI [52]: 56000 nM
- GI50 [53]: 1690 nM
- TGI [53]: > 100000 nM
- GI50 [54]: 337 nM
- TGI [54]: 3520 nM
- GI50 [55]: 1870 nM
- TGI [55]: > 100000 nM
- GI50 [56]: 935 nM
- TGI [56]: 23900 nM
- GI50 [58]: 621 nM
- TGI [58]: > 100000 nM
